Here are results for 4 molecules from patent publication US9708314B2, “Heterocyclic amide compound” (NISSAN CHEMICAL INDUSTRIES, LTD., priority 2013, dated 2017).

Format in all cases: in vivo
The test system of one assay is Scirpus juncoides. Put plainly: Test Example 2: herbicidal activity, application during weed generation in submerged conditions. Conditions: Eighteenth Table; application herbicide amount 320 g/ha. The procedure, abridged:
(§1)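 Scored three weeks post-application on a 0–5 scale (5: ≥90% herbicidal ratio, almost withered; 0: ≤5%). Plants raised from mixed-sown seed in submerged alluvial soil (4 cm water), 25–30 °C greenhouse; water-diluted emulsion applied onto water surface at one- to two-leaf stage, dose in g/ha.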

The subject of assay [1] is Echinochloa oryzacola Vasing. Described as above. Conditions: Eighteenth Table; application herbicide amount 320 g/ha. A digest of the protocol: as §1
The test system of the next assay is Monochoria vaginalis. The assay is described as above. The conditions noted are these: Eighteenth Table; application herbicide amount 320 g/ha. A digest of the protocol:
as §1

Another assay deals with Amaranthus retroflexus. Put plainly: Test Example 4: herbicidal effect by application to foliage (diluvial soil, plastic box). The conditions noted are these: 320 g/ha; for herbicidal effect, N (Amaranthus retroflexus): application to foliage; for N (Amaranthus retroflexus) herbicidal effect grade: foliage application. A digest of the protocol: (§2)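 Seeds sown in sterilized diluvial soil, covered ~1.5 cm, grown 14 days in greenhouse at 25° C. to 30° C. Emulsion formulation diluted in water to set rate (g/ha) and sprayed onto stems and leaves. Effect scored visually 3 weeks later on 0–5 scale (5 = ≥90% herbicidal ratio, 0 = ≤5%).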

A further assay concerns Abutilon theophrasti. Described as above. The conditions noted are these: 320 g/ha; for herbicidal effect, M (Abutilon theophrasti): application to foliage; for M (Abutilon theophrasti) herbicidal effect grade: foliage application. A digest of the protocol:
as §2

Another assay deals with Veronica persica. The assay is described as above. The conditions noted are these: 320 g/ha; for herbicidal effect, R (Veronica persica): application to foliage; for R (Veronica persica) herbicidal effect grade: foliage application. The procedure, abridged:
as §2

Another assay deals with Setaria viridis. The description is as above. The conditions noted are these: 320 g/ha; for herbicidal effect, G (Setaria viridis): application to foliage; for G (Setaria viridis) herbicidal effect grade: foliage application. The procedure, abridged:
as §2

For assay [2], the system named is Echinochloa crus-galli var. crus-galli. The description is as above. Conditions: 320 g/ha; for herbicidal effect, H (Echinochloa crus-galli var. crus-galli): application to foliage; for H (Echinochloa crus-galli var. crus-galli) herbicidal effect grade: foliage application. The procedure, abridged: as §2
Another assay has as its system Chenopodium album. The assay is described as above. The conditions noted are these: 320 g/ha; for herbicidal effect, O (Chenopodium album): application to foliage; for O (Chenopodium album) herbicidal effect grade: foliage application. The procedure, abridged:
as §2

The test system of another assay is Alopecurus myosuroides. The assay is described as above. Conditions: 320 g/ha; for herbicidal effect, J (Alopecurus myosuroides): application to foliage; for J (Alopecurus myosuroides) herbicidal effect grade: foliage application. The procedure, abridged:
as §2

The next assay has as its system Stellaria media. Described as above. Conditions: 320 g/ha; for herbicidal effect, P (Stellaria media): application to foliage; for P (Stellaria media) herbicidal effect grade: foliage application. The procedure, abridged: as §2
The next assay deals with Avena fatua. The description is as above. The conditions noted are these: 320 g/ha; for herbicidal effect, I (Avena fatua): application to foliage; for I (Avena fatua) herbicidal effect grade: foliage application. A digest of the protocol: as §2
The next assay has as its system Digitaria ciliaris. The description is as above. The conditions noted are these: 320 g/ha; for herbicidal effect, F (Digitaria ciliaris): application to foliage; for F (Digitaria ciliaris) herbicidal effect grade: foliage application. The procedure, abridged:
as §2

The next assay deals with Lolium multiflorum Lam. The assay is described as above. The conditions noted are these: 320 g/ha; for herbicidal effect, K (Lolium multiflorum Lam.): application to foliage; for K (Lolium multiflorum Lam.) herbicidal effect grade: foliage application. The procedure, abridged: as §2
The next assay deals with Apera spica-venti. The assay is described as above. Conditions: 320 g/ha; for herbicidal effect, L (Apera spica-venti.): application to foliage; for L (Apera spica-venti.) herbicidal effect grade: foliage application. A digest of the protocol:
as §2

With `CC#Cc1nnc2c(C(=O)Nc3nnnn3C)ccc(C(F)(F)F)n12` [2-106], the “B (Scirpus juncoides) herbicidal ratio grade” value with Scirpus juncoides was 2 (Herbicidal ratio of 20% or more and less than 40%). Also, in [1], the “A (Echinochloa oryzicola Vasing.) herbicidal ratio grade” value was 1 (Herbicidal ratio of 5% or more and less than 20%). Besides, in the assay with Monochoria vaginalis, the “C (Monochoria vaginalis) herbicidal ratio grade” value is 3 (Herbicidal ratio of 40% or more and less than 70%). Also, in the assay on Amaranthus retroflexus, the “herbicidal effect, N (Amaranthus retroflexus)” value is 4 (Herbicidal ratio of 70% or more and less than 90%). Moreover, the “herbicidal effect, M (Abutilon theophrasti)” value in the assay with Abutilon theophrasti is recorded as 5 (Herbicidal ratio of 90% or more (almost completely withered)). The “herbicidal effect, R (Veronica persica)” value in the assay with Veronica persica was 3 (Herbicidal ratio of 40% or more and less than 70%). Moreover, the “herbicidal effect, G (Setaria viridis)” value in the assay with Setaria viridis was 1 (Herbicidal ratio of 5% or more and less than 20%). The “herbicidal effect, H (Echinochloa crus-galli var. crus-galli)” value in assay [2] is 3 (Herbicidal ratio of 40% or more and less than 70%). For the same molecule, the “herbicidal effect, O (Chenopodium album)” value in the assay on Chenopodium album is given as 5 (Herbicidal ratio of 90% or more (almost completely withered)). The “herbicidal effect, J (Alopecurus myosuroides)” value with Alopecurus myosuroides is reported as 0 (Herbicidal ratio of 5% or less (almost no effect)). The “herbicidal effect, P (Stellaria media)” value in the assay on Stellaria media is 4 (Herbicidal ratio of 70% or more and less than 90%). The “herbicidal effect, I (Avena fatua)” value with Avena fatua was 1 (Herbicidal ratio of 5% or more and less than 20%). In addition, in the assay with Digitaria ciliaris, the “herbicidal effect, F (Digitaria ciliaris)” value is 3 (Herbicidal ratio of 40% or more and less than 70%). Besides, the “herbicidal effect, K (Lolium multiflorum Lam.)” value with Lolium multiflorum Lam. is recorded as 0 (Herbicidal ratio of 5% or less (almost no effect)). Moreover, in the assay with Apera spica-venti., the “herbicidal effect, L (Apera spica-venti.)” value is on record as 0 (Herbicidal ratio of 5% or less (almost no effect)).
As to `CCCSc1nnc2c(C(=O)Nc3nnnn3C)ccc(C(F)(F)F)n12` [2-068], the “B (Scirpus juncoides) herbicidal ratio grade” value in the assay with Scirpus juncoides is listed as 5 (Herbicidal ratio of 90% or more (almost completely withered)). In addition, the “A (Echinochloa oryzicola Vasing.) herbicidal ratio grade” value in [1] was 5 (Herbicidal ratio of 90% or more (almost completely withered)). Besides, in the assay with Monochoria vaginalis, the “C (Monochoria vaginalis) herbicidal ratio grade” value is 4 (Herbicidal ratio of 70% or more and less than 90%). The “N (Amaranthus retroflexus) herbicidal effect grade” value in the assay with Amaranthus retroflexus is listed as 5 (Herbicidal ratio of 90% or more (almost completely withered)). Besides, in the assay on Abutilon theophrasti, the “M (Abutilon theophrasti) herbicidal effect grade” value is recorded as 5 (Herbicidal ratio of 90% or more (almost completely withered)). For the same molecule, in the assay with Veronica persica, the “R (Veronica persica) herbicidal effect grade” value is reported as 5 (Herbicidal ratio of 90% or more (almost completely withered)). In the assay on Setaria viridis, the “G (Setaria viridis) herbicidal effect grade” value is reported as 5 (Herbicidal ratio of 90% or more (almost completely withered)). For the same molecule, the “H (Echinochloa crus-galli var. crus-galli) herbicidal effect grade” value in assay [2] was 5 (Herbicidal ratio of 90% or more (almost completely withered)). The “O (Chenopodium album) herbicidal effect grade” value in the assay on Chenopodium album is 5 (Herbicidal ratio of 90% or more (almost completely withered)). For the same molecule, the “J (Alopecurus myosuroides) herbicidal effect grade” value with Alopecurus myosuroides is 2 (Herbicidal ratio of 20% or more and less than 40%). In the assay with Stellaria media, the “P (Stellaria media) herbicidal effect grade” value is 5 (Herbicidal ratio of 90% or more (almost completely withered)). Further, the “I (Avena fatua) herbicidal effect grade” value with Avena fatua is 3 (Herbicidal ratio of 40% or more and less than 70%). Moreover, the “F (Digitaria ciliaris) herbicidal effect grade” value in the assay with Digitaria ciliaris is listed as 5 (Herbicidal ratio of 90% or more (almost completely withered)). Further, the “K (Lolium multiflorum Lam.) herbicidal effect grade” value in the assay on Lolium multiflorum Lam. was 2 (Herbicidal ratio of 20% or more and less than 40%). The “L (Apera spica-venti.) herbicidal effect grade” value with Apera spica-venti. is 3 (Herbicidal ratio of 40% or more and less than 70%).
Turning to `CC(C)c1nnc2c(C(=S)Nc3nnnn3C)ccc(C(F)(F)F)n12` [2-039, 3-Isopropyl-N-(1-methyl-1H-tetrazol-5-yl)-5-(trifluoromethyl)-[1,2,4]triazolo[4,3-a]pyridine-8-carbothioamide], the “B (Scirpus juncoides) herbicidal ratio grade” value with Scirpus juncoides is given as 5 (Herbicidal ratio of 90% or more (almost completely withered)). Moreover, in [1], the “A (Echinochloa oryzicola Vasing.) herbicidal ratio grade” value was 5 (Herbicidal ratio of 90% or more (almost completely withered)). Besides, the “C (Monochoria vaginalis) herbicidal ratio grade” value with Monochoria vaginalis is recorded as 5 (Herbicidal ratio of 90% or more (almost completely withered)). Further, the “N (Amaranthus retroflexus) herbicidal effect grade” value with Amaranthus retroflexus is recorded as 5 (Herbicidal ratio of 90% or more (almost completely withered)). Further, in the assay with Abutilon theophrasti, the “M (Abutilon theophrasti) herbicidal effect grade” value is recorded as 5 (Herbicidal ratio of 90% or more (almost completely withered)). Besides, the “R (Veronica persica) herbicidal effect grade” value in the assay on Veronica persica was 5 (Herbicidal ratio of 90% or more (almost completely withered)). In addition, in the assay on Setaria viridis, the “G (Setaria viridis) herbicidal effect grade” value was 5 (Herbicidal ratio of 90% or more (almost completely withered)). Besides, the “H (Echinochloa crus-galli var. crus-galli) herbicidal effect grade” value in assay [2] is 5 (Herbicidal ratio of 90% or more (almost completely withered)). Besides, the “O (Chenopodium album) herbicidal effect grade” value with Chenopodium album is recorded as 5 (Herbicidal ratio of 90% or more (almost completely withered)). Further, the “J (Alopecurus myosuroides) herbicidal effect grade” value in the assay on Alopecurus myosuroides was 3 (Herbicidal ratio of 40% or more and less than 70%). Moreover, the “P (Stellaria media) herbicidal effect grade” value with Stellaria media is given as 5 (Herbicidal ratio of 90% or more (almost completely withered)). The “I (Avena fatua) herbicidal effect grade” value with Avena fatua is 4 (Herbicidal ratio of 70% or more and less than 90%). For the same molecule, in the assay with Digitaria ciliaris, the “F (Digitaria ciliaris) herbicidal effect grade” value is reported as 5 (Herbicidal ratio of 90% or more (almost completely withered)). For the same molecule, in the assay with Lolium multiflorum Lam., the “K (Lolium multiflorum Lam.) herbicidal effect grade” value is 3 (Herbicidal ratio of 40% or more and less than 70%). Further, the “L (Apera spica-venti.) herbicidal effect grade” value in the assay on Apera spica-venti. was 4 (Herbicidal ratio of 70% or more and less than 90%).
Regarding `CC(C)N(C)c1nnc2c(C(=O)Nc3nnnn3C)ccc(C(F)(F)F)n12` [2-082], the “B (Scirpus juncoides) herbicidal ratio grade” value with Scirpus juncoides is 4 (Herbicidal ratio of 70% or more and less than 90%). Also, the “A (Echinochloa oryzicola Vasing.) herbicidal ratio grade” value in assay [1] is listed as 5 (Herbicidal ratio of 90% or more (almost completely withered)). Besides, the “C (Monochoria vaginalis) herbicidal ratio grade” value in the assay on Monochoria vaginalis was 3 (Herbicidal ratio of 40% or more and less than 70%). In the assay on Amaranthus retroflexus, the “herbicidal effect, N (Amaranthus retroflexus)” value is on record as 5 (Herbicidal ratio of 90% or more (almost completely withered)). Further, the “herbicidal effect, M (Abutilon theophrasti)” value in the assay on Abutilon theophrasti is on record as 5 (Herbicidal ratio of 90% or more (almost completely withered)). Moreover, the “herbicidal effect, R (Veronica persica)” value in the assay on Veronica persica is 4 (Herbicidal ratio of 70% or more and less than 90%). Further, the “herbicidal effect, G (Setaria viridis)” value in the assay with Setaria viridis is 5 (Herbicidal ratio of 90% or more (almost completely withered)). In assay [2], the “herbicidal effect, H (Echinochloa crus-galli var. crus-galli)” value was 5 (Herbicidal ratio of 90% or more (almost completely withered)). In addition, the “herbicidal effect, O (Chenopodium album)” value in the assay on Chenopodium album is 5 (Herbicidal ratio of 90% or more (almost completely withered)). Moreover, the “herbicidal effect, J (Alopecurus myosuroides)” value in the assay on Alopecurus myosuroides was 4 (Herbicidal ratio of 70% or more and less than 90%). For the same molecule, the “herbicidal effect, P (Stellaria media)” value with Stellaria media is 5 (Herbicidal ratio of 90% or more (almost completely withered)). For the same molecule, the “herbicidal effect, I (Avena fatua)” value in the assay with Avena fatua is 2 (Herbicidal ratio of 20% or more and less than 40%). Moreover, the “herbicidal effect, F (Digitaria ciliaris)” value with Digitaria ciliaris is 5 (Herbicidal ratio of 90% or more (almost completely withered)). In the assay on Lolium multiflorum Lam., the “herbicidal effect, K (Lolium multiflorum Lam.)” value is 4 (Herbicidal ratio of 70% or more and less than 90%). Besides, the “herbicidal effect, L (Apera spica-venti.)” value in the assay with Apera spica-venti. was 4 (Herbicidal ratio of 70% or more and less than 90%).
